Assay results from patent US7632811B2, “Analogs of parathyroid hormone” (Societe de Conseils de Recherches et D'Applications …, priority 1995, dated 2009).
Where two headings read alike, the source gives them in different places. Non-standard residues stand in square brackets, D forms with d. Residues, ends and D or L forms follow the SMILES beside them. Cha = N[C@@H](CC1CCCCC1)C(=O)O; Ac6c = NC1(C(=O)O)CCCCC1; Aib = CC(C)(N)C(=O)O

Molecular target: T1, PTH receptor present on SaOS-2 (human osteosarcoma cells) (Homo sapiens, UniProt Q03431)
T1 construct: host or cells: SaOS-2 human osteosarcoma cells (intact, confluent monolayers)
T1 sequence (Q03431 27-593): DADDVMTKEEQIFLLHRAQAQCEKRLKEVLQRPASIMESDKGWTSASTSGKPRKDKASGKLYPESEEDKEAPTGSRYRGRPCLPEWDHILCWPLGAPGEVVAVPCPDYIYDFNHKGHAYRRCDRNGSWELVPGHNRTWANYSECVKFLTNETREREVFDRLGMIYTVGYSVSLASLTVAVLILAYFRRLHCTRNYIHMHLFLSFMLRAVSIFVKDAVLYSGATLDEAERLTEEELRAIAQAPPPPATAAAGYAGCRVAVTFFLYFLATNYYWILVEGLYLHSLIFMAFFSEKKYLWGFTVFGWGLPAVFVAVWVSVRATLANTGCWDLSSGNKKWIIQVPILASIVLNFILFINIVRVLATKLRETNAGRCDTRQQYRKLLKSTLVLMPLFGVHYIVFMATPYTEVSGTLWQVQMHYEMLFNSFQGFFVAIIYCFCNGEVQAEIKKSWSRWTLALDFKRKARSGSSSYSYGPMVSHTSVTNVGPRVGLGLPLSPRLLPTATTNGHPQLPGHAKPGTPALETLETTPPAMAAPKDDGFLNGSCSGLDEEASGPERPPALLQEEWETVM
Experiment: Binding to PTH receptor on SaOS-2 cells (competition with mono-125I-[Nle8,18,Tyr34(3-125I)]bPTH(1-34)NH2)
Details: 2 hrs at room temperature, read-out: Kd (half maximal inhibition of binding of mono-125I-[Nle8,18, Tyr34(3-125I)]bPTH(1-34)NH2)
Outline: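 Confluent SaOS-2 cells in 5% FBS RPMI were incubated 2 h at room temperature with 10×10^4 cpm mono-125I-[Nle8,18,Tyr34(3-125I)]bPTH(1-34)NH2 plus competing peptide at 10^−11 to 10^−4 M. After washing, cell-bound radioactivity was counted; Kd taken as half-maximal inhibition of tracer binding.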

| Kd (Table II) | Kd (Table I) | SMILES |
| --- | --- | --- |
| 0.07 µM | – | CC[C@H](C)[C@H](NC(=O)[C@H](CO)NC(=O)[C@H](CCCCN)NC(=O)CNC(=O)[C@H](CCCCN)NC(=O)[C@H](CC(=O)O)NC(=O)[C@H](Cc1c[nH]cn1)NC(=O)[C@H](CC(C)C)NC(=O)[C@H](CC(C)C)NC(=O)[C@H](CCC(N)=O)NC(=O)[C@H](Cc1c[nH]cn1)NC(=O)[C@H](CCC(=O)O)NC(=O)[C@H](CO)NC(=O)[C@@H](NC(=O)[C@H](C)N)C(C)C)C(=O)N[C@@H](CCC(N)=O)C(=O)N[C@@H](CC(=O)O)C(=O)N[C@@H](CC(C)C)C(=O)N[C@@H](CCCNC(=N)N)C(=O)N[C@@H](CCCNC(=N)N)C(=O)N[C@@H](CCCNC(=N)N)C(=O)N[C@@H](CCC(=O)O)C(=O)NC1(C(=O)N[C@@H](CC(C)C)C(=O)N[C@@H](CCC(=O)O)C(=O)N[C@@H](CCCCN)C(=O)N[C@@H](CC(C)C)C(=O)N[C@@H](CC(C)C)C(=O)NC(C)(C)C(=O)N[C@@H](CCCCN)C(=O)N[C@@H](CC(C)C)C(=O)N[C@@H](Cc2c[nH]cn2)C(=O)N[C@H](C(=O)N[C@@H](C)C(N)=O)[C@@H](C)O)CCCCC1 [[Glu^22,25, Ahc^23, Lys^26,30, Leu^28,31, Aib^29]hPTHrP(1-34)NH2] (H-AVSEHQLLHDKGKSIQDLRRRE[Ac6c]LEKLL[Aib]KLHTA-NH2; N-terminus assumed) |
| – | 0.06 µM | CC[C@H](C)[C@H](NC(=O)[C@H](CCC(=O)O)NC(=O)[C@H](CO)NC(=O)[C@@H](NC(=O)[C@@H](N)CO)C(C)C)C(=O)N[C@@H](CCC(N)=O)C(=O)N[C@@H](CC(C)C)C(=O)N[C@@H](CCSC)C(=O)N[C@@H](Cc1c[nH]cn1)C(=O)N[C@@H](CC(N)=O)C(=O)N[C@@H](CC(C)C)C(=O)NCC(=O)N[C@@H](CCCCN)C(=O)N[C@@H](Cc1c[nH]cn1)C(=O)N[C@@H](CC(C)C)C(=O)N[C@@H](CC(N)=O)C(=O)N[C@@H](CO)C(=O)N[C@@H](CCSC)C(=O)N[C@@H](CCC(=O)O)C(=O)N[C@@H](CCCNC(=N)N)C(=O)N[C@H](C(=O)N[C@@H](CCC(=O)O)C(=O)N[C@@H](Cc1c[nH]c2ccccc12)C(=O)N[C@@H](CC(C)C)C(=O)N[C@@H](CCCNC(=N)N)C(=O)N[C@@H](CCCCN)C(=O)N[C@@H](CCCCN)C(=O)N[C@@H](CC1CCCCC1)C(=O)N[C@@H](CCC(N)=O)C(=O)N[C@@H](CC(=O)O)C(=O)N[C@@H](CC1CCCCC1)C(=O)N[C@@H](Cc1c[nH]cn1)C(=O)N[C@@H](CC(N)=O)C(=O)N[C@@H](Cc1ccccc1)C(N)=O)C(C)C [[Cha^28,31]hPTH(1-34)NH2] (H-SVSEIQLMHNLGKHLNSMERVEWLRKK[Cha]QD[Cha]HNF-NH2) |
| – | 0.004 µM | CC[C@H](C)[C@H](NC(=O)[C@H](CCC(=O)O)NC(=O)C(C)(C)NC(=O)[C@@H](NC(=O)[C@@H](N)CO)C(C)C)C(=O)N[C@@H](CCC(N)=O)C(=O)N[C@@H](CC(C)C)C(=O)N[C@@H](CCSC)C(=O)N[C@@H](Cc1c[nH]cn1)C(=O)N[C@@H](CC(N)=O)C(=O)N[C@@H](CC(C)C)C(=O)NCC(=O)N[C@@H](CCCCN)C(=O)N[C@@H](Cc1c[nH]cn1)C(=O)N[C@@H](CC(C)C)C(=O)N[C@@H](CC(N)=O)C(=O)N[C@@H](CO)C(=O)N[C@@H](CCSC)C(=O)N[C@@H](CCC(=O)O)C(=O)N[C@@H](CCCNC(=N)N)C(=O)N[C@H](C(=O)N[C@@H](CCC(=O)O)C(=O)N[C@@H](Cc1c[nH]c2ccccc12)C(=O)N[C@@H](CC(C)C)C(=O)N[C@@H](CCCNC(=N)N)C(=O)N[C@@H](CCCCN)C(=O)N[C@@H](CCCCN)C(=O)N[C@@H](CC(C)C)C(=O)N[C@@H](CCC(N)=O)C(=O)N[C@@H](CC(=O)O)C(=O)N[C@H](C(=O)N[C@@H](Cc1c[nH]cn1)C(=O)N[C@@H](CC(N)=O)C(=O)N[C@@H](Cc1ccccc1)C(N)=O)C(C)C)C(C)C [[Aib^3]hPTH(1-34)NH2] (H-SV[Aib]EIQLMHNLGKHLNSMERVEWLRKKLQDVHNF-NH2) |
